Source: US20240174648A1, “Small Molecule Compound” (Technoderma Medicines Pte Ltd, priority 2019, published 2024)

Columns and labels:
JAK1 = JAK1 (Homo sapiens, UniProt P23458); test: JAK kinase inhibition assay (EZ Reader, peptide substrate phosphorylation) - JAK1; assay type: biochemical; settings: JAK1 kinase 20 nM; 8 concentration points, max 10 μM
Description: (§1) Assay for Identifying Inhibitory Effects of Compounds on JAK Kinases
(§2) Janus kinases (JAK), including JAK1, JAK2, JAK3 and Tyk2, transduce a cytokine-mediated signal through a JAK-STAT pathway. The kinases are 120-140 kDa in size and have 7 determined homology regions: JH1 to JH7. JH1 is an important region for enzymatic activity and has typical characteristics of tyrosine kinases. Phosphorylation of tyrosine leads to a change in the conformation of JAK protein, thereby promoting binding of substrate. The JAK-STAT system includes three main parts: receptors penetrating a cell membrane, Janus kinases binding to the receptors, and signal transducers and activators of transcription (STAT) for transmitting signals to a nucleus and DNA. When cytokines bind to receptors, JAK phosphorylates the receptors and attracts STAT proteins. The STAT proteins are also phosphorylated and combined with one another to form dimers. The dimers enter the nucleus and bind to DNA, thereby leading to gene transcription.
(§3) EZ Reader from PerkinElmer can be used to detect the phosphorylation of polypeptide substrates catalyzed by kinases. The device is based on microfluidic techniques, and can directly detect fluorescently labeled substrates and products. The separation step is achieved by controlling the pressure and electric field strength in the microfluidic chip. In kinase assays, a product conversion ratio is usually controlled to be 20-30%. A biological test is used to identify inhibitory effects of compounds on JAKs.
(§4) Compound powder was dissolved in DMSO, sealed and stored in a freezer under −20° C. The in-house compound Ref1 was used as a positive control for JAK1, JAK2 and Tyk2 tests, and Ref2 was used as a positive control for JAK3 tests.
(§5) S2.8. Assay buffer: 20 mM HEPES buffer, pH 7.4, 10 mM magnesium chloride, 0.01% bovine serum albumin BSA, 0.0005% Tween-20 and 1 mM dithiothreitol solution.
(§6) S2.9. Stop buffer: 180 mM HEPES buffer, 20 mM ethylenediaminetetraacetic acid and 0.2% coating reagent 3.
(§7) S2.10. Separation buffer: 100 mM HEPES buffer, 10 mM ethylenediaminetetraacetic acid, 0.0005% Tween 20, 0.1% coating reagent 3 and 1% dimethyl sulfoxide.
(§8) The compound was dissolved in dimethyl sulfoxide and diluted to 10 mM concentration, a certain volume of solution was taken and diluted to 0.6 mM concentration, 10 μL of the 0.6 mM dilution was added to a 384-well microplate, and then was diluted 3-fold with a total of 8 concentration points.
(§9) Positive control (HPE1): Ref1, final concentration: 10 μM […]
(§10) Negative control (ZPE): DMSO, final content: 1.6%
(§11) Compounds: maximum final concentration: 10 μM; 3-fold dilution, 8 concentration points and 2 duplicates.
(§12) S4.1. 250 nL of the compound was added to each well of the assay microplate by using ECHO, and centrifuged at 1000 rpm for 1 minute.
(§13) S4.2. 5 μL of the assay buffer was added and agitated for a few seconds to fully dissolve the compound.
(§14) S4.3. 5 μL of 3× substrate solution and 5 μL of 3× kinase solution were added and centrifuged at 800 rpm for 1 minute.
(§15) S4.4. Final concentrations of JAK1, JAK2, JAK3 and Tyk2 kinases in the reaction system were 20 nM, 1 nM, 1 nM and 1 nM respectively.
(§16) S4.5. Incubation at room temperature, where kinases had time differences, and different batches of kinases had time differences.
(§17) S4.6. When 20%-30% of the reaction completed, 15 μL of stop buffer was added to stop the reaction, and centrifuged at 1000 rpm for 2 minutes.
(§18) S4.7. The microplates were placed on EZ Reader for reading.
(§19) S4.8. Readings on EZ Reader were calculated by using a peak height, where product conversion ratio (%)=product/(product+substrate)*100.
(§20) 5. Data Processing: IC50 calculation
(§21) A graphing software Xlfit was used to form a concentration curve of the test compound, and an IC50 value was calculated.
(§22) “A” means “≥10 μM”; “B” means “≥1 μM and <10 μM”; “C” means “≥0.1 μM and <1 μM”; and “D” means “<0.1 μM”.

Tyk2 = Tyk2 (Homo sapiens, UniProt P29597); test: JAK kinase inhibition assay (EZ Reader, peptide substrate phosphorylation) - Tyk2; assay type: biochemical; settings: Tyk2 kinase 1 nM; 8 concentration points, max 10 μM
Description: as §1, §2, §3, §4, §5, §6, §7, §8, §9, §10, §11, §12, §13, §14, §15, §16, §17, §18, §19, §20, §21, §22

Tyk2, sequence (P29597 whole entry): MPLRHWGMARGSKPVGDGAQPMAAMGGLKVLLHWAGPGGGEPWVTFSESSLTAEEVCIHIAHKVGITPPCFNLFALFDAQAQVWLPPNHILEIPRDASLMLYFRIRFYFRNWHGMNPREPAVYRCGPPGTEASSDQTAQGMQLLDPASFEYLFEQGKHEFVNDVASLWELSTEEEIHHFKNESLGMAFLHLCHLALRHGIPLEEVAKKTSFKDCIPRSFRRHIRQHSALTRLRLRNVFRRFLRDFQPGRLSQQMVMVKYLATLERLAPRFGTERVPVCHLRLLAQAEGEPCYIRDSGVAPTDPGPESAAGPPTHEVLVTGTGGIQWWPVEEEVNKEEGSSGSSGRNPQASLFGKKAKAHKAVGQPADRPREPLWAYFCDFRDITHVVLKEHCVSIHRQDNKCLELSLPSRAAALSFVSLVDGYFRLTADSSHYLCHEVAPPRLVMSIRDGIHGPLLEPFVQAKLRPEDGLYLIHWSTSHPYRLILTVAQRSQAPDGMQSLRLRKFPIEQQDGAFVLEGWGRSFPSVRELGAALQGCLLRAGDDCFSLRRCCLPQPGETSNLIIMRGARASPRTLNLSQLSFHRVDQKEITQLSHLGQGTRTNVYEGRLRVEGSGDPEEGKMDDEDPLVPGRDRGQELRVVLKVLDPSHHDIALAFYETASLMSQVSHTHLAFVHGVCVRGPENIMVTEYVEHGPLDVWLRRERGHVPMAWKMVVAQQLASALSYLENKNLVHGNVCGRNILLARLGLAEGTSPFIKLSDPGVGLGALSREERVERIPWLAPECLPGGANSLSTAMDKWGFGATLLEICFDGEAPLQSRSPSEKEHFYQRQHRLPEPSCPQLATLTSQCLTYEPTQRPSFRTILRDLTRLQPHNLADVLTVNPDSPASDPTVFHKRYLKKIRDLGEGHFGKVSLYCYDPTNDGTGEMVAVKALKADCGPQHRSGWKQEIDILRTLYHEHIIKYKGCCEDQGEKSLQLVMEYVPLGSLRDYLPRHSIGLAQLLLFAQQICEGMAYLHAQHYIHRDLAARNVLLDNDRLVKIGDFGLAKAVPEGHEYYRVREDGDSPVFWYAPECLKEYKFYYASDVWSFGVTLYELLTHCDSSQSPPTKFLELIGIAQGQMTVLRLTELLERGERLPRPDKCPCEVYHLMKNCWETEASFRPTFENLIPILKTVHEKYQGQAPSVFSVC
JAK1, sequence (P23458 whole entry): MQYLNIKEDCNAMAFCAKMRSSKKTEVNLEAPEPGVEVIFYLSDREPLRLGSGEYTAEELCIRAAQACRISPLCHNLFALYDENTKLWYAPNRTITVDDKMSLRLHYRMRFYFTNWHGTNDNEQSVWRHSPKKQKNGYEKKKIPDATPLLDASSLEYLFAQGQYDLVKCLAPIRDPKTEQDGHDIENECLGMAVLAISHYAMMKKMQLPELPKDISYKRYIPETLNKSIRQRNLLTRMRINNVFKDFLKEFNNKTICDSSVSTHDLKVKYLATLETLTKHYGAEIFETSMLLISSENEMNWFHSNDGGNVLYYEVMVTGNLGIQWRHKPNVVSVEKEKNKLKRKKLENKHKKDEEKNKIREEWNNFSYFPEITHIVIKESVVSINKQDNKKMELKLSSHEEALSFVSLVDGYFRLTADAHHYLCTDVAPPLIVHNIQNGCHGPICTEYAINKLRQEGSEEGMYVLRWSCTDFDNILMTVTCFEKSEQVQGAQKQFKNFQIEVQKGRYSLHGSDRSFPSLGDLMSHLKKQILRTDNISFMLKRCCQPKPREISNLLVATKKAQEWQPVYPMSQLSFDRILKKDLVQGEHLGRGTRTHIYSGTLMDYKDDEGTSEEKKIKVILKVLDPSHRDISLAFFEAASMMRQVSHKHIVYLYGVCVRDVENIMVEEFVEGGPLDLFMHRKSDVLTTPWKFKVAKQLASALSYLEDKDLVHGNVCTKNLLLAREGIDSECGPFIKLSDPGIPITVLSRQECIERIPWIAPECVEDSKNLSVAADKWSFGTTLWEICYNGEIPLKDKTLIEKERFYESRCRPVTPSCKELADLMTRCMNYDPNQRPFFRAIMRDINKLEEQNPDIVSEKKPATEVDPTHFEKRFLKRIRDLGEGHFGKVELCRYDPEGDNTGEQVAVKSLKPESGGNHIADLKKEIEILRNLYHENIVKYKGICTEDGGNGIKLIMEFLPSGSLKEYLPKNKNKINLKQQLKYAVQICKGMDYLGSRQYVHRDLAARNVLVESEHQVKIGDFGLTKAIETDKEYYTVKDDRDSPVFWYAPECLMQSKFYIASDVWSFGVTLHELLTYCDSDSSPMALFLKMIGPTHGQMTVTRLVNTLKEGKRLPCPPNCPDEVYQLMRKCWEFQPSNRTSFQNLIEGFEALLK

Compound | IC50 (JAK1) [µM] | IC50 (Tyk2) [µM]
Cc1cc(-c2ccnc(Nc3cnn(C)c3)n2)cnc1NC(=O)C1CC1(F)F (stereo not shown) [TDM-180906, 2,2-difluoro-N-(3-methyl-5-(2-((1-methyl-1H-pyrazol-4-yl)amino)pyrimidin-4-yl)pyridin-2-yl)cyclopropane-1-carboxamide] | 0.1 to 1 | 1 to 10
Cc1cc(-c2ccnc(Nc3cnn(C)c3)n2)cnc1NC(=O)CC#N [TDM-180907, 2-cyano-N-(3-methyl-5-(2-((1-methyl-1H-pyrazol-4-yl)amino)pyrimidin-4-yl)pyridin-2-yl)acetamide] | 1 to 10 | 1 to 10
Cc1cc(-c2ccnc(Nc3cnn(C)c3)n2)cnc1NC(=O)CC(F)(F)F [TDM-180908, 3,3,3-trifluoro-N-(3-methyl-5-(2-((1-methyl-1H-pyrazol-4-yl)amino)pyrimidin-4-yl)pyridin-2-yl)propanamide] | 0.1 to 1 | 1 to 10
Cc1cc(-c2ccnc(Nc3cnn(C)c3)n2)cnc1NC(=O)C1CC1 [TDM-180910, N-(3-methyl-5-(2-((1-methyl-1H-pyrazol-4-yl)amino)pyrimidin-4-yl)pyridin-2-yl)cyclopropanemethane] | 1 to 10 | ≥ 10
Cn1cc(Nc2nccc(-n3ccc4c(NC(=O)CC5CC5)cccc43)n2)cn1 [TDM-180911, 2-cyclopropyl-N-(1-(2-((1-methyl-1H-pyrazol-4-yl)amino)pyrimidin-4-yl)-1H-indol-4-yl)acetamide] | 0.1 to 1 | 1 to 10
Cn1cc(Nc2nccc(-c3cnc(NS(=O)(=O)Cc4ccccc4)c(F)c3)n2)cn1 [TDM-180913, N-(3-fluoro-5-(2-((1-methyl-1H-pyrazol-4-yl)amino)pyrimidin-4-yl)pyridin-2-yl)-1-phenylmethanesulfonamide] | ≥ 10 | ≥ 10
Cn1cc(Nc2nccc(-c3cnc(NC(=O)C4CC4)cn3)n2)cn1 [TDM-180914, N-(5-(2-((1-methyl-1H-pyrazol-4-yl)amino)pyrimidin-4-yl)pyrazin-2-yl)cyclopropanemethane] | 1 to 10 | 1 to 10
Cn1cc(Nc2nccc(-c3ccc(NC(=O)CC4CC4)c4[nH]ncc34)n2)cn1 [TDM-180917, 2-cyclopropyl-N-(4-(2-((1-methyl-1H-pyrazol-4-yl)amino)pyrimidin-4-yl)-1H-indazol-7-yl)acetamide] | 0.1 to 1 | 0.1 to 1
CCS(=O)(=O)Nc1ncc(-c2ccnc(Nc3cnn(C)c3)n2)cn1 [TDM-180919, N-(2-((1-methyl-1H-pyrazol-4-yl)amino)-[4,5′-bipyrimidin]-2′-yl)ethanesulfonamide] | ≥ 10 | ≥ 10
Cn1cc(Nc2nccc(-c3ccc(NC(=O)CC4CC4)c4[nH]ccc34)n2)cn1 [TDM-180920] | 0.1 to 1 | 0.1 to 1
Cn1cc(Nc2nccc(-c3cnc(NS(=O)(=O)Cc4ccccc4)nc3)n2)cn1 [TDM-180921, N-(2-((1-methyl-1H-pyrazol-4-yl)amino)-[4,5′-bipyrimidin]-2′-yl)-1-phenylmethanesulfonamide] | ≥ 10 | ≥ 10
Cn1cc(Nc2nccc(-c3ccc(NC(=O)CC#N)c4cc[nH]c34)n2)cn1 [TDM-180923] | 0.1 to 1 | ≥ 10
Cn1cc(Nc2nccc(-c3ccc(NC(=O)CC(F)(F)F)c4cc[nH]c34)n2)cn1 [TDM-180924, 3,3,3-trifluoro-N-(7-(2-((1-methyl-1H-pyrazol-4-yl)amino)pyrimidin-4-yl)-1H-indol-4-yl)propanamide] | 0.1 to 1 | 1 to 10
Cn1cc(Nc2nccc(-c3ccc(NC(=O)C4CC4)c4cc[nH]c34)n2)cn1 [TDM-180926, N-(7-(2-((1-methyl-1H-pyrazol-4-yl)amino)pyrimidin-4-yl)-1H-indole-4-yl)cyclopropanecarboxamide] | ≥ 10 | ≥ 10
Cn1cc(Nc2nccc(-c3ccc(NC(=O)C4CC4(F)F)c4cc[nH]c34)n2)cn1 (stereo not shown) [TDM-180929, 2,2-difluoro-N-(7-(2-((1-methyl-1H-pyrazol-4-yl)amino)pyrimidin-4-yl)-1H-indol-4-yl)cyclopropane-1-carboxamide] | 1 to 10 | ≥ 10
Cn1cc(Nc2nccc(-c3ccc(NC(=O)CC4CC4)c4cc[nH]c34)n2)cn1 [TDM-180933] | 1 to 10 | ≥ 10
Cn1cc(Nc2nccc(-c3ccc(NC(=O)[C@@H]4CC4(F)F)cc3)n2)cn1 [TDM-180934] | < 0.1 | < 0.1
Cn1cc(Nc2nccc(-c3ccc(NC(=O)[C@@H]4CC4(F)F)nc3)n2)cn1 [TDM-180935, (S)-2,2-difluoro-N-(5-(2-((1-methyl-1H-pyrazol-4-yl)amino)pyrimidin-4-yl)pyridin-2-yl)cyclopropane-1-carboxamide] | < 0.1 | < 0.1
Cn1cc(Nc2nccc(-c3ccc(NC(=O)[C@H]4CC4(F)F)cc3)n2)cn1 [TDM-180936, (R)-2,2-difluoro-N-(4-(2-((1-methyl-1H-pyrazol-4-yl)amino)pyrimidin-4-yl)phenyl)cyclopropane-1-carboxamide] | < 0.1 | 0.1 to 1
Cn1cc(Nc2nccc(-c3ccc(NC(=O)[C@H]4CC4(F)F)nc3)n2)cn1 [TDM-180939, (R)-2,2-difluoro-N-(5-(2-((1-methyl-1H-pyrazol-4-yl)amino)pyrimidin-4-yl)pyridin-2-yl)cyclopropane-1-carboxamide] | < 0.1 | 0.1 to 1
